Here are results for 33 molecules from ChEMBL document CHEMBL5346878, “SAR study of piperidine derivatives as inhibitors of 1,4-dihydroxy-2-naphthoate isoprenyltransferase (MenA) from Mycobacterium tuberculosis” (Eur J Med Chem, 2023).

≈ marks a conversion by molar mass, not a printed value. Calls of active or inactive are those of the source. The rule behind the calls is not given here.

For test [1], the system named is Mycobacterium tuberculosis. Description: Antibacterial activity against Mycobacterium tuberculosis mc2 6230 assessed as bacterial growth inhibition incubated for 5 days by absorbance based assay. The format is functional, organism-based. The conditions noted are these: mc2 6230, 120 h; for GI50: time 5 day.
Test [2] has as its target T1, 1,4-dihydroxy-2-naphthoate octaprenyltransferase (Mycobacterium tuberculosis, UniProt P9WIP3).
T1 sequence (P9WIP3 whole entry): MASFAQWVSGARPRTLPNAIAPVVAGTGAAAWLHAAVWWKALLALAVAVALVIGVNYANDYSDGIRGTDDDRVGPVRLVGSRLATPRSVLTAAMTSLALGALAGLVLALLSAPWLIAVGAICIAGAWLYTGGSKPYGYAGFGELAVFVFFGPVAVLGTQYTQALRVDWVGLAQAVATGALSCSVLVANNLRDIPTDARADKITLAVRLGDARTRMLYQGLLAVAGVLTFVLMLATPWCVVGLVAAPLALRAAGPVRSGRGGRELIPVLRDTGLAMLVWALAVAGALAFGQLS
Briefly: Displacement of [3H]FPP from Mycobacterium tuberculosis mc2 6230 membrane protein MenA incubated for 30 mins by liquid scintillation spectrometry. The format is cell membranes.

In test [3] the test system is Mycobacterium tuberculosis. Description: Displacement of 14C-SAM from Mycobacterium tuberculosis membrane MenG assessed as reduction in MK8 synthesis at 12.5 uM incubated for 1 hr by liquid scintillation counting method. The class given is cell membranes.
In test [4] the test system is Mycobacterium tuberculosis. Description: Bactericidal activity against Mycobacterium tuberculosis H37RvLP (ATCC 25618) at 50 to 100 uM. The class given is functional, organism-based. The conditions noted are these: dose 50-100 µM.
For test [5], the system named is Mycobacterium tuberculosis. Description: Synergistic bactericidal activity against Mycobacterium tuberculosis H37RvLP (ATCC 25618) assessed as fold increase in activity upto 100 uM in presence of CPZ. The format is functional.
The subject of test [6] is Mycobacterium tuberculosis. Description: Synergistic bactericidal activity against Mycobacterium tuberculosis H37RvLP (ATCC 25618) incubated for 14 days in presence of CPZ relative to control. The format is functional. The conditions noted are these: time 14 day.
Test [7] relates to Mycobacterium tuberculosis. Description: Synergistic bactericidal activity against Mycobacterium tuberculosis H37RvLP (ATCC 25618) at 25 uM in presence of Q203. The class given is functional, organism-based.
Test [8] has as its system Mycobacterium tuberculosis. Description: Synergistic bactericidal activity against Mycobacterium tuberculosis H37RvLP (ATCC 25618) at 25 uM in presence of IMP. The format is functional, organism-based.
Test [9] deals with Mycobacterium tuberculosis. Description: Synergistic bactericidal activity against Mycobacterium tuberculosis H37RvLP (ATCC 25618) assessed as fold increase in activity at <12.5 uM in presence of IMP. The format is functional.
Test [10] concerns Mycobacterium tuberculosis. Briefly: Antibacterial activity against Mycobacterium tuberculosis assessed as bacterial growth inhibition. The format is functional.
The test system of test [11] is Mycobacterium tuberculosis. Description: Antibacterial activity against Mycobacterium tuberculosis H37Rv (ATCC 27294) assessed as bacterial growth inhibition incubated for 7 days by microdilution alamarBlue assay. The conditions noted are these: 168 h, time 7 day. The format is functional. In general terms: Dilution methods test growth across graded concentrations, often in twofold steps.

One may read the GI50 as the concentration giving 50% growth inhibition. As a reminder, the IC50 is the midpoint of a concentration-inhibition curve. For the molecule `CCCN(C)c1ccc(CN2CCC(COC3[C@H]4C[C@@H]5C[C@@H](C[C@H]3C5)C4)CC2)cc1` (stereo partly specified), in test [1], the GI50 was determined as 6 µM. In addition, the half-inhibitory concentration (IC50) in test [2] (read-out: IC50) stood at 23 µM.

For the molecule `CCCN(C)c1ccc(CN2CCC(COc3cccc(Nc4ccccc4C)c3)CC2)cc1`, in test [3], the inhibition result was “inactive”. The GI50 in [1] is 16 µM. In addition, the IC50 in test [2] (read-out: IC50) is 22 µM.

Take `CCCN(C)c1ccc(CN2CCC3(CC2)CC(Oc2ccc(Cl)cc2)CO3)cc1` (stereo unspecified): the GI50 in [1] is 25 µM. In test [2] (read-out: IC50), the IC50 is > 50 µM.

As to `CCCN(C)c1ccc(CN2CCC(COc3cccc(C(=O)c4ccc(Cl)cc4)c3)CC2)cc1`, in test [1], the GI50 turned out to be 8 µM. The IC50 in test [2] (read-out: IC50) came out at 14 µM.

On to `CCCN(C)c1ccc(CN2CCC(COc3ccc(Cl)cc3)CC2)cc1`, for which the outcome in test [4], in test [7] and in [8] was Active. For the same molecule, the inhibition result in test [3] is “inactive”. For the same molecule, the “fold change (FC)” value in test [5] turned out to be 1. For the same molecule, the GI50 in test [1] was 10 µM. In addition, the IC50 in test [2] (read-out: IC50) was 22 µM. The “inhibition (INH)” value in [6] turned out to be 100%.

Turning to `CCCN(C)c1ccc(CN2CCC(COc3c(F)cccc3F)CC2)cc1`, the GI50 in test [1] is 28 µM. In test [2] (read-out: IC50), the IC50 is 25 µM.

As for `CCCN(C)c1ccc(CN2CCC(COc3ccc(Cl)cc3Cl)CC2)cc1`, the GI50 in test [1] stood at 13 µM.

With `CCCN(C)c1ccc(CN2CCC(COc3cccc(Oc4ccccc4)c3)CC2)cc1`, the result in test [4] was Active. In addition, the inhibition entry in test [3] is “inactive”. Moreover, the “fold change (FC)” value in [5] is given as 1; in test [9], >3. The 50% growth inhibitory concentration (GI50) in [1] turned out to be 8 µM. Moreover, in [2] (read-out: IC50), the IC50 worked out at 13 µM. Also, the “inhibition (INH)” value in [6] amounted to 100%.

By MIC is commonly meant the least concentration at which growth counts as inhibited. Turning to `COc1ccc2ccc(OCCCCCCCCN3CCCCC3)cc2c1`, in [10], the MIC turned out to be 8.1 µM (≈ 2.99 µg/mL).

With `CCCN(C)c1ccc(CN2CCC(COc3noc4ccccc34)CC2)cc1`, in [3], the inhibition result was “inactive”.

In the case of `CCCN(C)c1ccc(CN2CCC(CSc3ccccc3C(=O)OC)CC2)cc1`, the inhibition result in [3] was “inactive”.

Regarding `CCCN(C)c1ccc(CN2CCC(COc3ccc(OC)cc3)CC2)cc1`, the inhibition entry in [3] was “inactive”. In test [1], the GI50 stood at 18 µM.

With `CCCN(C)c1ccc(CN2CCC(COc3cccc(C(=O)N4CCOCC4)c3)CC2)cc1`, the GI50 in test [1] is > 215 µM. The half-inhibitory concentration (IC50) result in [2] is listed as “Not Active”.

As to `C=CCN(C)CCCCCCCCOc1ccc2ccc(OC)cc2c1`, the MIC in test [10] was determined as 8.4 µM (≈ 2.99 µg/mL).

For `CCCN(C)c1ccc(CN2CCCC(Oc3cccc(Oc4ccccc4)c3)C2)cc1` (stereo unspecified), the GI50 in [1] came out at 37 µM. For the same molecule, in test [2] (read-out: IC50), the IC50 amounted to 24 µM.

For the molecule `CCCN(C)c1ccc(CN2CCC(COc3nc4ccc(F)cc4s3)CC2)cc1`, the IC50 in test [1] is 11 µM; in test [2] (read-out: IC50), 31 µM.

`CCCN(C)c1ccc(CN2CCC(COc3ccc4ccccc4c3)CC2)cc1`: the GI50 in test [1] stood at 7 µM. In addition, the 50% inhibitory concentration (IC50) in [2] (read-out: IC50) was determined as 21 µM.

As for `CCCN(C)c1ccc(CN2CCC(CSc3ccccc3)CC2)cc1`, the IC50 in test [2] (read-out: IC50) was 18 µM.

As for `CCCN(C)c1ccc(CN2CCC(COc3ccccc3Cl)CC2)cc1`, the concentration for 50% growth inhibition (GI50) in test [1] came out at 39 µM. Further, the IC50 in test [2] (read-out: IC50) turned out to be 31 µM.

As for `CCCN(C)c1ccc(CN2CCC3(CC2)CC(Oc2cccc(Oc4ccccc4)c2)CO3)cc1` (stereo unspecified), in test [1], the GI50 was found to be 9 µM.

`CCCN(C)c1ccc(CN2[C@@H]3CC[C@H]2CC(Oc2cccc(Oc4ccccc4)c2)C3)cc1` (stereo partly specified): in [1], the GI50 worked out at 17 µM. The IC50 in [2] (read-out: IC50) worked out at 27 µM.

For orientation: MIC90 means an inhibitory concentration at the 90% level, which refers to growth in some studies and to a panel of isolates in others. For `COc1ccc(-c2cc(NC(=O)c3ccc(Cl)cc3F)ccc2OC)cc1`, the inhibition result in test [3] is “Active”. Moreover, the MIC90 in test [11] turned out to be 4.8 µg/mL (≈ 12.4 µM).

For the molecule `c1ccc(Oc2cccc(OCC3CCN(Cc4ccc(N5CCOCC5)cc4)CC3)c2)cc1`, the inhibition entry in test [3] was “inactive”. Besides, the GI50 in test [1] was found to be 21 µM.

In the case of `CCCN(C)c1ccc(CN2CCC(COc3ccc(Br)cc3)CC2)cc1`, the GI50 in test [1] was 11 µM. Moreover, the IC50 in test [2] (read-out: IC50) was 12 µM.

For the molecule `CCCN(C)c1ccc(CN2CCC(COc3ccccc3F)CC2)cc1`, the GI50 in test [1] worked out at 35 µM. Further, in test [2] (read-out: IC50), the IC50 was determined as 18 µM.

Consider `CCCN(C)c1ccc(CN2CCC(COc3ccc(C)cn3)CC2)cc1`, for which, in test [1], the 50% growth inhibitory concentration (GI50) amounted to 31 µM. In test [2] (read-out: IC50), the IC50 is > 50 µM.

As to `CCCN(C)c1ccc(CN2CCC(COc3ccc(F)cc3)CC2)cc1`, the GI50 in test [1] amounted to 14 µM. Moreover, the IC50 in test [2] (read-out: IC50) was found to be 33 µM.

Take `CCCN(C)c1ccc(CN2CCC(COc3ccccc3)CC2)cc1`: the 50% growth inhibitory concentration (GI50) in [1] worked out at 27 µM. The IC50 in test [2] (read-out: IC50) was 64 µM.

Regarding `COc1ccc2ccc(OCCCCCCCCNCCc3ccc(F)cc3)cc2c1`, the MIC in test [10] is < 14.2 µM.

As for `CCCN(C)c1ccc(CN2CCC(COc3cc(=O)n(C)c4ccccc34)CC2)cc1`, in [1], the GI50 was determined as 11 µM. Further, the IC50 in [2] (read-out: IC50) turned out to be 102 µM.

Regarding `CCCN(C)c1ccc(CN2C[C@@H]3C[C@H]2CN3Cc2ccc(N3CCOCC3)cc2)cc1`, the GI50 in [1] stood at 149 µM. Also, the IC50 in test [2] (read-out: IC50) is > 50 µM.

As to `CCCN(C)c1ccc(CN2CCC(COc3cccc(Br)c3)CC2)cc1`, the inhibition result in [3] is “inactive”. The GI50 in test [1] is 14 µM. Further, the IC50 in [2] (read-out: IC50) was determined as 12 µM.

Take `CCCN(C)c1ccc(CN2CCC(COc3cccc(Cc4ccc(Cl)cc4)c3)CC2)cc1`: the GI50 in [1] was > 226 µM. The IC50 in test [2] (read-out: IC50) amounted to 55 µM.
